Experimental data: patent US20240190890A1, “MK2 INHIBITORS AND USES THEREOF” (Bristol-Myers Squibb Company, priority 2022, published 2024)

The molecules below were run against p38a activated, mitogen-activated protein kinase-activated protein kinase 2 (MAPKAP-K2 or MK2) enzyme (Homo sapiens (Human), UniProt P49137) (assay: MK2 Omnia continuous-read kinase assay for compound potency). Conditions: [MK-2]=0.4 nM, [ATP]=10 μM, [ST3-Sox]=10 μM; room temperature.
Chain of p38a activated, mitogen-activated protein kinase-activated protein kinase 2 (MAPKAP-K2 or MK2) enzyme (P49137 whole entry): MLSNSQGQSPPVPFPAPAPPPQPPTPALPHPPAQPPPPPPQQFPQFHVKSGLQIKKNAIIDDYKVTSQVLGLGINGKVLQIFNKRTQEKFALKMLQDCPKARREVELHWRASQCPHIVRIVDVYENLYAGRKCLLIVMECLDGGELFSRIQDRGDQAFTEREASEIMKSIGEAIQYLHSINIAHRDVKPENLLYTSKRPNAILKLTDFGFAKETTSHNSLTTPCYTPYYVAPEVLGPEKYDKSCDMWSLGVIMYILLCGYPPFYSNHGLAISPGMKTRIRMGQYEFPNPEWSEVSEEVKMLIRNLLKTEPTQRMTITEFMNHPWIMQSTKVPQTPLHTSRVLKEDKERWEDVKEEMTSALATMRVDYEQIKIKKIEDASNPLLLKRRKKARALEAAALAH
Assay type: biochemical
Method in brief: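 p38a-activated MK2 (0.4 nM) with 10 μM ATP (apparent Km) and 10 μM S/T3-Sox peptide in Tris pH 7.5 buffer with MgCl2, EGTA and DTT. Fluorescence (ex360/em485) read continuously for 120 min at room temperature. IC50 from initial linear slopes; apparent kinact/KI from kobs of exponential progress-curve fits.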
For `C=C(F)c1ncc(F)c(-c2ccc3c(ccc4sc5c(c43)NC[C@@H](C)NC5=O)n2)n1` [Example I-31, (R)-3-(5-fluoro-2-(1-fluorovinyl)pyrimidin-4-yl)-10-methyl-9,10,11,12-tetrahydro-8H-[1,4]diazepino[5′,6′:4,5]thieno[3,2-f]quinolin-8-one], the IC50 was 24 nM.
`C=Cc1ncc(COC2CCOCC2)c(-c2ccc3c(ccc4sc5c(c43)NC[C@@H](C)NC5=O)n2)n1` [Example I-25, (R)-10-methyl-3-(5-(((tetrahydro-2H-pyran-4-yl)oxy)methyl)-2-vinylpyrimidin-4-yl)-9,10,11,12-tetrahydro-8H-[1,4]diazepino[5′,6′:4,5]thieno[3,2-f]quinolin-8-one] gave an IC50 of 43 nM.
In the case of `C#Cc1cc(-c2ccc3c(ccc4sc5c(c43)NC[C@@H](C)NC5=O)n2)nc(N2CCN(C)CC2)n1` [Example I-59, (R)-3-(6-ethynyl-2-(4-methylpiperazin-1-yl)pyrimidin-4-yl)-10-methyl-9,10,11,12-tetrahydro-8H-[1,4]diazepino[5′,6′:4,5]thieno[3,2-f]quinolin-8-one], the IC50 is reported as 3 nM.
`C#Cc1ncc(C)c(-c2ccc3c(ccc4sc5c(c43)NC[C@@H](C)NC5=O)n2)n1` [Example I-41, (R)-3-(2-ethynyl-5-methylpyrimidin-4-yl)-10-methyl-9,10,11,12-tetrahydro-8H-[1,4]diazepino[5′,6′:4,5]thieno[3,2-f]quinolin-8-one] showed an IC50 of 199 nM.
Work on `C[C@@H]1CNc2c(sc3ccc4nc(-c5ccnc(Cl)c5F)ccc4c23)C(=O)N1` [Example I-221, (R)-3-(2-chloro-3-fluoropyridin-4-yl)-10-methyl-9,10,11,12-tetrahydro-8H-[1,4]diazepino[5′,6′:4,5]thieno[3,2-f]quinolin-8-one] yielded an IC50 of 212 nM.
`C=Cc1cc(-c2ccc3c(ccc4sc5c(c43)NCC(C)NC5=O)n2)cc(N2CCC3(CCC(=O)O3)CC2)n1` (racemic) [Example I-215, rac-(R)-8-(4-(10-methyl-8-oxo-9,10,11,12-tetrahydro-8H-[1,4]diazepino[5′,6′:4,5]thieno[3,2-f]quinolin-3-yl)-6-vinylpyridin-2-yl)-1-oxa-8-azaspiro[4.5]decan-2-one] was tested, and the IC50 was 21 nM.
`C=Cc1nc(Cl)c(Cl)n1-c1ccc2c(ccc3sc4c(c32)NC[C@@H](C)NC4=O)n1` [Example I-251, (R)-3-(4,5-dichloro-2-vinyl-1H-imidazol-1-yl)-10-methyl-9,10,11,12-tetrahydro-8H-[1,4]diazepino[5′,6′:4,5]thieno[3,2-f]quinolin-8-one] showed an IC50 of 192 nM.
In the case of `[2H]C([2H])([2H])C(O)c1cnc(C=C)cc1-c1ccc2c(ccc3sc4c(c32)NC[C@@H](C)NC4=O)n1` (stereo partly drawn) [Example I-260, (10R)-3-(5-(1-hydroxyethyl-2,2,2-d3)-2-vinylpyridin-4-yl)-10-methyl-9,10,11,12-tetrahydro-8H-[1,4]diazepino[5′,6′:4,5]thieno[3,2-f]quinolin-8-one], the IC50 is reported as 16 nM.
Molecule `C#Cc1cc(-c2ccc3c(ccc4sc5c(c43)NC[C@@H](C)NC5=O)n2)c(C)cn1` [Example I-111, (R)-3-(2-ethynyl-5-methylpyridin-4-yl)-10-methyl-9,10,11,12-tetrahydro-8H-[1,4]diazepino[5′,6′:4,5]thieno[3,2-f]quinolin-8-one] has an IC50 of 104 nM.
`COc1nnc(/C=C/CN(C)C)cc1-c1ccc2c(ccc3sc4c(c32)NC[C@@H](C)NC4=O)n1` [Example I-145, (R,E)-3-(6-(3-(dimethylamino)prop-1-en-1-yl)-3-methoxypyridazin-4-yl)-10-methyl-9,10,11,12-tetrahydro-8H-[1,4]diazepino[5′,6′:4,5]thieno[3,2-f]quinolin-8-one] was tested, and the IC50 was 273 nM.
For `C/C=C\c1cc(-c2ccc3c(ccc4sc5c(c43)NC[C@@H](C)NC5=O)n2)nc(COCC)n1` [Example I-36, (R,Z)-3-(2-(ethoxymethyl)-6-(prop-1-en-1-yl)pyrimidin-4-yl)-10-methyl-9,10,11,12-tetrahydro-8H-[1,4]diazepino[5′,6′:4,5]thieno[3,2-f]quinolin-8-one], the IC50 was 12 nM.
In the case of `C[C@@H]1CNc2c(sc3ccc4nc(-c5nc(Cl)nc6c5CN(C)CC6)ccc4c23)C(=O)N1` [Example I-192, (R)-3-(2-chloro-6-methyl-5,6,7,8-tetrahydropyrido[4,3-d]pyrimidin-4-yl)-10-methyl-9,10,11,12-tetrahydro-8H-[1,4]diazepino[5′,6′:4,5]thieno[3,2-f]quinolin-8-one], the IC50 is reported as 257 nM.
Molecule `C/C=C/c1cc(-c2ccc3c(ccc4sc5c(c43)NC[C@@H](C)NC5=O)n2)c(C)cn1` [Example I-265, (R,E)-10-methyl-3-(5-methyl-2-(prop-1-en-1-yl)pyridin-4-yl)-9,10,11,12-tetrahydro-8H-[1,4]diazepino[5′,6′:4,5]thieno[3,2-f]quinolin-8-one] has an IC50 of 210 nM.
`C#Cc1cc(-c2ccc3c(ccc4sc5c(c43)NC[C@@H](C)NC5=O)n2)cc(N2CCC(F)(F)CC2)n1` [Example I-182, (R)-3-(2-(4,4-difluoropiperidin-1-yl)-6-ethynylpyridin-4-yl)-10-methyl-9,10,11,12-tetrahydro-8H-[1,4]diazepino[5′,6′:4,5]thieno[3,2-f]quinolin-8-one] was tested, and the IC50 was 1000 nM.
`C#Cc1cc(-c2ccc3c(ccc4sc5c(c43)NC[C@@H](C)NC5=O)n2)ccn1` [Example I-57, (R)-3-(2-ethynylpyridin-4-yl)-10-methyl-9,10,11,12-tetrahydro-8H-[1,4]diazepino[5′,6′:4,5]thieno[3,2-f]quinolin-8-one] gave an IC50 of 117 nM.
For `C=Cc1ncc(-c2ccc3c(ccc4sc5c(c43)NC[C@@H](C)NC5=O)n2)s1` [Example I-209, (R)-10-methyl-3-(2-vinylthiazol-5-yl)-9,10,11,12-tetrahydro-8H-[1,4]diazepino[5′,6′:4,5]thieno[3,2-f]quinolin-8-one], the IC50 was 15 nM.
Work on `C=Cc1cc(-c2ccc3c(ccc4sc5c(c43)NC[C@@H](C)NC5=O)n2)c(CN2CCC(C(F)(F)F)CC2)cn1` [Example I-212, (R)-10-methyl-3-(5-((4-(trifluoromethyl)piperidin-1-yl)methyl)-2-vinylpyridin-4-yl)-9,10,11,12-tetrahydro-8H-[1,4]diazepino[5′,6′:4,5]thieno[3,2-f]quinolin-8-one] yielded an IC50 of 92 nM.
`C=Cc1cc(-c2ccc3c(ccc4sc5c(c43)NC[C@@H](C)NC5=O)n2)c(C#N)cn1` [Example I-161, (R)-4-(10-methyl-8-oxo-9,10,11,12-tetrahydro-8H-[1,4]diazepino[5′,6′:4,5]thieno[3,2-f]quinolin-3-yl)-6-vinylnicotinonitrile] gave an IC50 of 2 nM.
In the case of `C#Cc1cc(-c2ccc3c(ccc4sc5c(c43)NC[C@@H](C)NC5=O)n2)cnn1` [Example I-51, (R)-3-(6-ethynylpyridazin-4-yl)-10-methyl-9,10,11,12-tetrahydro-8H-[1,4]diazepino[5′,6′:4,5]thieno[3,2-f]quinolin-8-one], the IC50 is reported as 3 nM.
With `C=Cc1cc(-c2ccc3c(ccc4sc5c(c43)NC[C@@H](C)NC5=O)n2)c(F)cn1` [Example I-70, (R)-3-(5-fluoro-2-vinylpyridin-4-yl)-10-methyl-9,10,11,12-tetrahydro-8H-[1,4]diazepino[5′,6′:4,5]thieno[3,2-f]quinolin-8-one] the IC50 was 64 nM.
For `C[C@@H]1CNc2c(sc3ccc4nc(-c5ccnc(/C=C/C(F)(F)F)c5)ccc4c23)C(=O)N1` [Example I-199, (R,E)-10-methyl-3-(2-(3,3,3-trifluoroprop-1-en-1-yl)pyridin-4-yl)-9,10,11,12-tetrahydro-8H-[1,4]diazepino[5′,6′:4,5]thieno[3,2-f]quinolin-8-one], the IC50 was 636 nM.
Work on `C=Cc1cc(-c2ccc3c(ccc4sc5c(c43)NC[C@@H](C)NC5=O)n2)c(COC)cn1` [Example I-253, (R)-3-(5-(methoxymethyl)-2-vinylpyridin-4-yl)-10-methyl-9,10,11,12-tetrahydro-8H-[1,4]diazepino[5′,6′:4,5]thieno[3,2-f]quinolin-8-one] yielded an IC50 of 6 nM.
`C=Cc1nc(C)c(C)n1-c1ccc2c(ccc3sc4c(c32)NC[C@@H](C)NC4=O)n1` [Example I-231, (R)-3-(4,5-dimethyl-2-vinyl-1H-imidazol-1-yl)-10-methyl-9,10,11,12-tetrahydro-8H-[1,4]diazepino[5′,6′:4,5]thieno[3,2-f]quinolin-8-one] was tested, and the IC50 was 28 nM.
`C[C@@H]1CNc2c(sc3ccc4nc(-c5ccnc(C#CC(C)(C)N)c5)ccc4c23)C(=O)N1` [Example I-135, (R)-3-(2-(3-amino-3-methylbut-1-yn-1-yl)pyridin-4-yl)-10-methyl-9,10,11,12-tetrahydro-8H-[1,4]diazepino[5′,6′:4,5]thieno[3,2-f]quinolin-8-one] gave an IC50 of 15 nM.
`C[C@@H]1CNc2c(sc3ccc4nc(-c5ccnc(Cl)n5)ccc4c23)C(=O)N1` [Example I-8, (R)-3-(2-chloropyrimidin-4-yl)-10-methyl-9,10,11,12-tetrahydro-8H-[1,4]diazepino[5′,6′:4,5]thieno[3,2-f]quinolin-8-one] was tested, and the IC50 was 75 nM.
`C#Cc1cc(-c2ccc3c(ccc4sc5c(c43)NC[C@@H](C)NC5=O)n2)cc(CN2CCC(OC)CC2)n1` [Example I-122, (R)-3-(2-ethynyl-6-((4-methoxypiperidin-1-yl)methyl)pyridin-4-yl)-10-methyl-9,10,11,12-tetrahydro-8H-[1,4]diazepino[5′,6′:4,5]thieno[3,2-f]quinolin-8-one] gave an IC50 of 40 nM.
Molecule `C[C@@H]1CNc2c(sc3ccc4nc(-n5cnc(Cl)n5)ccc4c23)C(=O)N1` [Example I-210, (R)-3-(3-chloro-1H-1,2,4-triazol-1-yl)-10-methyl-9,10,11,12-tetrahydro-8H-[1,4]diazepino[5′,6′:4,5]thieno[3,2-f]quinolin-8-one] has an IC50 of 91 nM.
In the case of `C=Cc1cc(-c2ccc3c(ccc4sc5c(c43)NCC(C)NC5=O)n2)cc(N2CC3CC2CO3)n1` (racemic) [Example I-216, rac-(10R)-3-(2-(2-oxa-5-azabicyclo[2.2.1]heptan-5-yl)-6-vinylpyridin-4-yl)-10-methyl-9,10,11,12-tetrahydro-8H-[1,4]diazepino[5′,6′:4,5]thieno[3,2-f]quinolin-8-one], the IC50 is reported as 11 nM.
